Source: PubChem BioAssay AID248 (DTP/NCI, 2004)
“And” between values parts separate entries of the source, which are not always exact repeats. Equal values may be shown once. Toxic doses and inconclusive results are not listed. Rule as the data show it: active = T/C of 150% or more; inactive = T/C below 125%.

System: L1210 leukemia ip in BDF1 mice, survival T/C
Experiment: NCI In Vivo Anticancer Drug Screen. Data for tumor model L1210 Leukemia (intraperitoneal) in B6D2F1 (BDF1) mice
Conditions: endpoint: mean survival time, higher = longer survival
In short: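 Read-out is survival time, reported as the treated-group measurement over the vehicle-control measurement.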

[1] = dose: 100.0 mg/kg/injection, schedule: Q01DX009 (ip), vehicle: Klucel (hydroxypropylcellulose) (HPC)
[2] = dose: 100.0 mg/kg/injection, schedule: Q04DX003 (ip), vehicle: Klucel (hydroxypropylcellulose) (HPC)
[3] = dose: 200.0 mg/kg/injection, schedule: Q01DX009 (ip), vehicle: Klucel (hydroxypropylcellulose) (HPC)
[4] = dose: 200.0 mg/kg/injection, schedule: Q04DX003 (ip), vehicle: Klucel (hydroxypropylcellulose) (HPC)
[5] = dose: 400.0 mg/kg/injection, schedule: Q01DX009 (ip), vehicle: Klucel (hydroxypropylcellulose) (HPC)
[6] = dose: 400.0 mg/kg/injection, schedule: Q04DX003 (ip), vehicle: Klucel (hydroxypropylcellulose) (HPC)
[7] = dose: 100.0 mg/kg/injection, schedule: Q01DX001 (ip), vehicle: saline
[8] = dose: 200.0 mg/kg/injection, schedule: Q01DX001 (ip), vehicle: saline
[9] = dose: 400.0 mg/kg/injection, schedule: Q01DX001 (ip), vehicle: saline
[10] = dose: 100.0 mg/kg/injection, schedule: Q01DX001 (ip), vehicle: saline with Tween-80
[11] = dose: 100.0 mg/kg/injection, schedule: Q04DX003 (ip), vehicle: saline with Tween-80
[12] = dose: 200.0 mg/kg/injection, schedule: Q01DX001 (ip), vehicle: saline with Tween-80
[13] = dose: 200.0 mg/kg/injection, schedule: Q04DX003 (ip), vehicle: saline with Tween-80
[14] = dose: 400.0 mg/kg/injection, schedule: Q04DX003 (ip), vehicle: saline with Tween-80
[15] = dose: 100.0 mg/kg/injection, schedule: Q04DX002 (ip), vehicle: saline with Tween-80
[16] = dose: 200.0 mg/kg/injection, schedule: Q04DX002 (ip), vehicle: saline with Tween-80
[17] = dose: 400.0 mg/kg/injection, schedule: Q04DX002 (ip), vehicle: saline with Tween-80

Measured: T/C

CCOC(=O)C(=CN1CCCCCC1)C(=O)OCC
inactive: dose: 100.0 mg/kg/injection, schedule: Q04DX003 (ip), vehicle: saline 106 % of control | dose: 200.0 mg/kg/injection, schedule: Q04DX003 (ip), vehicle: saline 97 % of control | dose: 400.0 mg/kg/injection, schedule: Q04DX003 (ip), vehicle: saline 89 % of control

Cc1ncc(C(O)c2ccc(N(C)C)cc2)n1Cc1ccccc1 (centres undefined)
inactive: dose: 100.0 mg/kg/injection, schedule: Q01DX001 (ip), vehicle: Klucel (hydroxypropylcellulose) (HPC) 95 % of control | [1] 100 % of control and 104 % of control | dose: 100.0 mg/kg/injection, schedule: Q04DX002 (ip), vehicle: Klucel (hydroxypropylcellulose) (HPC) 111 % of control | [2] 103 % of control | dose: 200.0 mg/kg/injection, schedule: Q01DX001 (ip), vehicle: Klucel (hydroxypropylcellulose) (HPC) 95 % of control | [3] 103 % of control and 115 % of control | dose: 200.0 mg/kg/injection, schedule: Q04DX002 (ip), vehicle: Klucel (hydroxypropylcellulose) (HPC) 94 % of control and 115 % of control | [4] 105 % of control | dose: 400.0 mg/kg/injection, schedule: Q01DX001 (ip), vehicle: Klucel (hydroxypropylcellulose) (HPC) 89 % of control | [5] 88 % of control | dose: 400.0 mg/kg/injection, schedule: Q04DX002 (ip), vehicle: Klucel (hydroxypropylcellulose) (HPC) 98 % of control and 99 % of control | [6] 103 % of control

O=[N+]([O-])/C=C\c1ccc2c(c1)OCO2
inactive: dose: 25.0 mg/kg/injection, schedule: Q01DX009 (ip), vehicle: Klucel (hydroxypropylcellulose) (HPC) 87 % of control and 103 % of control | dose: 50.0 mg/kg/injection, schedule: Q01DX009 (ip), vehicle: Klucel (hydroxypropylcellulose) (HPC) 89 % of control and 100 % of control | [7] 106 % of control | [1] 103 % of control | [2] 102 % of control | [8] 119 % of control | [4] 97 % of control | [9] 97 % of control

CCCCOP(=O)(OCCCC)C(O)CCC (centres undefined)
inactive: [10] 93 % of control | [11] 104 % of control | [12] 93 % of control | [13] 98 % of control

CN(CCC(C#N)(CCC#N)c1ccccc1)Cc1ccccc1 (centres undefined)
inactive: dose: 75.0 mg/kg/injection, schedule: Q01DX001 (ip), vehicle: saline 102 % of control | dose: 150.0 mg/kg/injection, schedule: Q01DX001 (ip), vehicle: saline 102 % of control

O=C(O)/C(S)=C\c1ccc(Cl)cc1
inactive: [7] 97 % of control | [8] 94 % of control

COC1OC2COC(c3ccccc3)OC2C(OC(=O)c2ccccc2)C1OC(=S)SCc1ccccc1 (centres undefined)
inactive: dose: 12.5 mg/kg/injection, schedule: Q04DX002 (ip), vehicle: saline 107 % of control | dose: 25.0 mg/kg/injection, schedule: Q04DX002 (ip), vehicle: saline 104 % of control | dose: 50.0 mg/kg/injection, schedule: Q04DX002 (ip), vehicle: saline 104 % of control

O=C(O)c1ccccc1SCc1cc(=O)[nH]c(=O)[nH]1
inactive: [11] 102 % of control | [13] 102 % of control | [14] 98 % of control

OC1OC(COCc2ccccc2)C(OCc2ccccc2)C1OCc1ccccc1 (centres undefined)
inactive: [10] 95 % of control | [12] 95 % of control

CCCCCCCCC(=O)Nc1cccc(O)c1
inactive: [11] 96 % of control | [13] 101 % of control | [14] 96 % of control

CCN(CC)CC#N
inactive: dose: 1.0 mg/kg/injection, schedule: Q01DX009 (ip), vehicle: saline 97 % of control | dose: 2.0 mg/kg/injection, schedule: Q01DX009 (ip), vehicle: saline 99 % of control | dose: 4.0 mg/kg/injection, schedule: Q01DX009 (ip), vehicle: saline 95 % of control | dose: 8.0 mg/kg/injection, schedule: Q01DX009 (ip), vehicle: saline 100 % of control

O=[As]O
inactive: dose: 0.5 mg/kg/injection, schedule: Q01DX015 (ip), vehicle: carboxymethylcellulose (CMC) 97 % of control | dose: 1.0 mg/kg/injection, schedule: Q01DX015 (ip), vehicle: carboxymethylcellulose (CMC) 93 % of control | dose: 1.53 mg/kg/injection, schedule: Q01DX Z (ip), vehicle: carboxymethylcellulose (CMC) 110 % of control | dose: 2.0 mg/kg/injection, schedule: Q01DX015 (ip), vehicle: carboxymethylcellulose (CMC) 97 % of control | dose: 3.15 mg/kg/injection, schedule: Q01DX Z (ip), vehicle: carboxymethylcellulose (CMC) 98 % of control | dose: 4.0 mg/kg/injection, schedule: Q01DX015 (ip), vehicle: carboxymethylcellulose (CMC) 97 % of control | dose: 5.0 mg/kg/injection, schedule: Q01DX015 (ip), vehicle: carboxymethylcellulose (CMC) 88 % of control | dose: 6.3 mg/kg/injection, schedule: Q01DX Z (ip), vehicle: carboxymethylcellulose (CMC) 104 % of control | dose: 10.0 mg/kg/injection, schedule: Q01DX015 (ip), vehicle: carboxymethylcellulose (CMC) 87 % of control | dose: 12.6 mg/kg/injection, schedule: Q01DX Z (ip), vehicle: carboxymethylcellulose (CMC) 104 % of control

CCC1CN2CCc3cc(OC)c(OC)cc3C2CC1CC1NCCc2cc(OC)c(OC)cc21 (centres undefined)
inactive: dose: 2.0 mg/kg/injection, schedule: Q04DX003 (ip), vehicle: water 93 % of control | dose: 4.0 mg/kg/injection, schedule: Q04DX003 (ip), vehicle: water 98 % of control | dose: 8.0 mg/kg/injection, schedule: Q04DX003 (ip), vehicle: water 94 % of control | dose: 16.0 mg/kg/injection, schedule: Q04DX003 (ip), vehicle: water 104 % of control | dose: 32.0 mg/kg/injection, schedule: Q04DX003 (ip), vehicle: water 102 % of control | dose: 64.0 mg/kg/injection, schedule: Q04DX003 (ip), vehicle: water 100 % of control

CC(=O)C1(O)CCC2C3CC(C)C4=CC(=O)C=CC4(C)C3C(O)CC21C (centres undefined)
inactive: dose: 12.5 mg/kg/injection, schedule: Q04DX002 (ip), vehicle: Klucel (hydroxypropylcellulose) (HPC) 97 % of control | dose: 25.0 mg/kg/injection, schedule: Q04DX002 (ip), vehicle: Klucel (hydroxypropylcellulose) (HPC) 97 % of control | dose: 50.0 mg/kg/injection, schedule: Q04DX002 (ip), vehicle: Klucel (hydroxypropylcellulose) (HPC) 90 % of control

CCOC(=O)C(C)C1CCCc2c(C)ccc(C)c21 (centres undefined)
inactive: [1] 100 % of control | [2] 98 % of control | [3] 102 % of control | [4] 92 % of control | [5] 93 % of control | [6] 98 % of control

O=C(O)CCc1ccc(-c2cccc([N+](=O)[O-])c2)o1
inactive: [15] 102 % of control | [16] 105 % of control | [17] 98 % of control

CCCCCCCCCCC1CCCC1
inactive: [15] 94 % of control | [16] 98 % of control | [17] 94 % of control

O=CCSC(=S)NNc1ccccc1
inactive: [1] 106 % of control | [2] 88 % of control | [3] 95 % of control | [4] 91 % of control | [6] 96 % of control

O=C(N/N=C/c1ccc(Cl)cc1Cl)c1cccc2ccccc12
inactive: [7] 92 % of control | [9] 86 % of control
